Patent US20080161232A1, “C5a Receptor Antagonist” (JERINI AG, priority 2005, published 2008)
Starred links: 1 amine or outer side, 2 acyl side, 3 side chain; linkers in the order of their positions; H or OH if unused. Positions of bridges follow the written chain, without caps; N, C: chain ends. Non-standard residues stand in square brackets, D forms with d. Residues, ends and D or L forms follow the SMILES beside them. ξ: configuration not given here. *: point of attachment. Phe(Nα-CONH2) = NC(=O)N[C@@H](Cc1ccccc1)C(=O)*; dβ3hPhg = O=C(C[C@H](N[*:1])c1ccccc1)[*:2]; NMe2Phe = CN(C)[C@@H](Cc1ccccc1)C(=O)*; Phe(4-F) = N[C@@H](Cc1ccc(F)cc1)C(=O)O; dPhe(2-Me) = Cc1ccccc1C[C@@H](N)C(=O)O; X10 = CCN(CC)[C@@H](Cc1ccccc1)C(=O)*; Acetyl(4-pyridyl) = O=C(Cc1ccncc1)*; Bta = N[C@@H](Cc1csc2ccccc12)C(=O)O; NEtPhe = CCN[C@@H](Cc1ccccc1)C(=O)O; Morpholinoacetyl = O=C(CN1CCOCC1)*; Hydrocinnamoyl = O=C(CCc1ccccc1)*; Hyp = O=C(O)[C@@H]1C[C@@H](O)CN1; d(hLeu) = CC(C)CC[C@@H](N)C(=O)O; ξNip = O=C(C1CCCN([*:1])C1)[*:2]; 2Thi = N[C@@H](Cc1cccs1)C(=O)O; Cit = NC(=O)NCCC[C@H](N)C(=O)O; dCha = N[C@H](CC1CCCCC1)C(=O)O; NHCH2CH(OH)CH2OH = OCC(O)CN*; Nicotinoyl = O=C(c1cccnc1)*; Morpholide = C1CN(*)CCO1; Nle = CCCC[C@H](N)C(=O)O; Orn = NCCC[C@H](N)C(=O)O; Aze = O=C(O)[C@@H]1CCN1; Fluoroacetyl = O=C(CF)*; CO = O=C([*:1])[*:2]; Propionyl = CCC(=O)*

The compounds below were run against T1, human C5aR(CD88) (Homo sapiens, UniProt P21730) (assay: Determination of the IC50 value in an enzyme release assay (functional assay, antagonistic activity)). Settings: activity (group), antagonistic activity; IC50 group in enzyme release assay, RBL cells expressing human C5aR(CD88).
T1 construct: expressed in transfected cells; host or cells: rat basophilic leukemia cells (RBL)
T1 sequence (P21730 1-350): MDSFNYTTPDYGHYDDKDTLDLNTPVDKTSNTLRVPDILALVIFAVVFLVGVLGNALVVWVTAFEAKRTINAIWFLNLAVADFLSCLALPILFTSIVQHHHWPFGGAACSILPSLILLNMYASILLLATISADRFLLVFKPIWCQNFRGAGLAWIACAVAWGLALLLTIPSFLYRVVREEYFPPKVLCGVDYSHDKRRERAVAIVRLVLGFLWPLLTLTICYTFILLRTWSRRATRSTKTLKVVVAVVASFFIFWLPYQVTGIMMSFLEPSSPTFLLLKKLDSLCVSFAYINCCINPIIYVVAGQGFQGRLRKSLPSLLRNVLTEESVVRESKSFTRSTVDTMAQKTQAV
Type: cell-based

SMILES | IC50 [nM]
NCCC[C@H](NC(=O)[C@H](Cc1ccccc1)NC(=O)CF)C(=O)N1CC[C@H]1C(=O)N[C@H](CC1CCCCC1)C(=O)N[C@@H](Cc1csc2ccccc12)C(=O)N[C@@H](Cc1ccccc1)C(N)=O [Compound 321, FAc-Phe-Orn-Aze-cha-Bta-Phe-NH2] (Fluoroacetyl-F[Orn][Aze][dCha][Bta]F-NH2) | 20 to 50

Same assay, conditions: antagonistic activity; IC50 group in enzyme release assay, RBL cells expressing human C5aR(CD88); read-out: activity (group)

IC50 [nM] | SMILES
20 to 50 | CC(=O)N[C@@H](Cc1ccccc1)C(=O)N[C@@H](CCCN)C(=O)N[C@@H](CO)C(=O)N[C@H](CC1CCCCC1)C(=O)N[C@@H](Cc1csc2ccccc12)C(=O)N[C@@H](Cc1ccccc1)C(N)=O [Compound 309, Ac-Phe-Orn-Ser-cha-Bta-Phe-NH2] (Ac-F[Orn]S[dCha][Bta]F-NH2)
10 to 20 | CC(=O)N[C@@H](CO)C(=O)N[C@@H](Cc1ccccc1)C(=O)N[C@@H](CCCN)C(=O)N1CC[C@H]1C(=O)N[C@H](CC1CCCCC1)C(=O)N[C@@H](Cc1csc2ccccc12)C(=O)N[C@@H](Cc1ccccc1)C(N)=O [Compound 310, Ac-Ser-Phe-Orn-Aze-cha-Bta-Phe-NH2] (Ac-SF[Orn][Aze][dCha][Bta]F-NH2)
50 to 200 | CC(=O)N[C@@H](Cc1cccs1)C(=O)N[C@H]1CCCNC(=O)[C@H](Cc2ccccc2)NC(=O)[C@H](Cc2csc3ccccc23)NC(=O)[C@@H](CCC(C)C)NC(=O)[C@@H]2CCCN2C1=O [Compound 311, Ac-Thi-[Orn-Pro-hle-Bta-Phe]] (Ac-[2Thi][Orn]P[d(hLeu)][Bta]F; lactam 2-C)
20 to 50 | CC(=O)N[C@@H](Cc1cccs1)C(=O)N[C@@H](CCCN)C(=O)N1CCC[C@H]1C(=O)N[C@H](CC1CCCCC1)C(=O)N[C@@H](Cc1csc2ccccc12)C(=O)N[C@@H](Cc1ccccc1)C(N)=O [Compound 312, Ac-Thi-Orn-Pro-cha-Bta-Phe-NH2] (Ac-[2Thi][Orn]P[dCha][Bta]F-NH2)
20 to 50 | CC(=O)N[C@@H](Cc1cccs1)C(=O)N[C@@H](CCCN)C(=O)N1CCC[C@H]1C(=O)N[C@H](CC1CCCCC1)C(=O)N[C@@H](Cc1csc2ccccc12)C(=O)N[C@@H](Cc1cccs1)C(N)=O [Compound 313, Ac-Thi-Orn-Pro-cha-Bta-Thi-NH2] (Ac-[2Thi][Orn]P[dCha][Bta][2Thi]-NH2)
20 to 50 | CC(=O)N[C@H](C(=O)N[C@@H](Cc1ccccc1)C(=O)N[C@@H](CCCN)C(=O)N1CC[C@H]1C(=O)N[C@H](CC1CCCCC1)C(=O)N[C@@H](Cc1csc2ccccc12)C(=O)N[C@@H](Cc1ccccc1)C(N)=O)[C@@H](C)O [Compound 314, Ac-Thr-Phe-Orn-Aze-cha-Bta-Phe-NH2] (Ac-TF[Orn][Aze][dCha][Bta]F-NH2)
50 to 200 | CCCC[C@@H]1NC(=O)[C@H](Cc2csc3ccccc23)NC(=O)[C@@H](CC2CCCCC2)NC(=O)[C@@H]2CCCN2C(=O)[C@@H](NCc2ccccc2)CCCNC1=O [Compound 315, Bzl-[Orn-Pro-cha-Bta-Nle]]
50 to 200 | CCCC[C@@H]1NC(=O)[C@H](Cc2c[nH]c3ccccc23)NC(=O)[C@@H](CCC(C)C)NC(=O)[C@H](CO)NC(=O)[C@@H](NC(=O)[C@H](Cc2ccccc2)N(CC)CC)CCCNC1=O [Compound 317, Def-[Orn-Ser-hle-Trp-Nle]] (X10-[Orn]S[d(hLeu)]W[Nle]; lactam 1-C)
50 to 200 | N[C@@H](CC(=O)N[C@@H](Cc1ccccc1)C(=O)N[C@H]1CCCNC(=O)[C@H](Cc2ccccc2)NC(=O)[C@H](Cc2c[nH]c3ccccc23)NC(=O)[C@@H](CC2CCCCC2)NC(=O)[C@@H]2C[C@@H](O)CN2C1=O)c1ccccc1 [Compound 318, Eby-Phe-[Orn-Hyp-cha-Trp-Phe]] (dβ3hPhg-F[Orn][Hyp][dCha]WF; lactam 2-C)
50 to 200 | CCCC[C@@H]1NC(=O)[C@H](Cc2ccc(F)cc2)NC(=O)[C@@H](CCC(C)C)NC(=O)[C@@H]2CCCN2C(=O)[C@@H](NC(=O)[C@H](Cc2ccccc2)NCC)CCCNC1=O [Compound 319, Eth-Phe-[Orn-Pro-hle-Pff-Nle]] (H-[NEtPhe][Orn]P[d(hLeu)][Phe(4-F)][Nle]; lactam 2-C)
50 to 200 | NC(=O)N[C@@H](Cc1ccccc1)C(=O)N[C@H]1CCCNC(=O)[C@H](Cc2ccccc2)NC(=O)[C@H](Cc2c[nH]c3ccccc23)NC(=O)[C@@H](CC2CCCCC2)NC(=O)[C@@H]2C[C@@H](O)CN2C1=O [Compound 323, Fai-Phe-[Orn-Hyp-cha-Trp-Phe]] ({Phe(Nα-CONH2)}-[Orn][Hyp][dCha]WF; lactam 1-C)
50 to 200 | NCCC[C@H](NC(=O)CCc1ccccc1)C(=O)N1CCC[C@H]1C(=O)N[C@H](CC1CCCCC1)C(=O)N[C@@H](Cc1csc2ccccc12)C(=O)N[C@@H](Cc1ccccc1)C(N)=O [Compound 324, Faz-Orn-Pro-cha-Bta-Phe-NH2] (Hydrocinnamoyl-[Orn]P[dCha][Bta]F-NH2)
50 to 200 | CCCC[C@@H]1NC(=O)[C@H](Cc2c[nH]c3ccccc23)NC(=O)[C@@H](CC2CCCCC2)NC(=O)[C@@H]2CCCN2C(=O)[C@@H](NC(=O)[C@H](Cc2ccccc2)NC(=O)Cc2ccncc2)CCCNC1=O [Compound 325, Fbi-Phe-[Orn-Pro-cha-Trp-Nle]] ({Acetyl(4-pyridyl)}-F[Orn]P[dCha]W[Nle]; lactam 2-C)
50 to 200 | O=C(N[C@@H](Cc1ccccc1)C(=O)N[C@H]1CCCNC(=O)[C@H](Cc2ccccc2)NC(=O)[C@H](Cc2c[nH]c3ccccc23)NC(=O)[C@@H](CC2CCCCC2)NC(=O)[C@@H]2C[C@@H](O)CN2C1=O)c1cccnc1 [Compound 326, Fbn-Phe-[Orn-Hyp-cha-Trp-Phe]] (Nicotinoyl-F[Orn][Hyp][dCha]WF; lactam 2-C)
50 to 200 | CCCC[C@@H]1NC(=O)[C@H](Cc2c[nH]c3ccccc23)NC(=O)[C@@H](CC2CCCCC2)NC(=O)[C@@H]2CCCN2C(=O)[C@@H](NC(=O)[C@H](Cc2ccccc2)NC(=O)c2cccnc2)CCCNC1=O [Compound 327, Fbn-Phe-[Orn-Pro-cha-Trp-Nle]] (Nicotinoyl-F[Orn]P[dCha]W[Nle]; lactam 2-C)
10 to 20 | CCCC[C@@H]1NC(=O)[C@H](Cc2c[nH]c3ccccc23)NC(=O)[C@@H](CC2CCCCC2)NC(=O)[C@@H]2CCCN2C(=O)[C@@H](NC(=O)[C@H](Cc2ccccc2)NC(=O)c2cccnc2)CCCNC1=O [Compound 328, Fbn-Phe-[Orn-Pro-cha-Trp-Nle]] (Nicotinoyl-F[Orn]P[dCha]W[Nle]; lactam 2-C)
50 to 200 | CCCC[C@@H]1NC(=O)[C@H](Cc2c[nH]c3ccccc23)NC(=O)[C@@H](CC2CCCCC2)NC(=O)[C@@H]2CCCN2C(=O)[C@@H](NC(=O)[C@H](Cc2ccccc2)NC(=O)N2CCOCC2)CCCNC1=O [Compound 330, Fbo-Phe-[Orn-Pro-cha-Trp-Nle]] ({Morpholide-CO}-F[Orn]P[dCha]W[Nle]; lactam 2-C)
50 to 200 | CCCC[C@@H]1NC(=O)[C@H](Cc2c[nH]c3ccccc23)NC(=O)[C@@H](CC2CCCCC2)NC(=O)[C@@H]2CCCN2C(=O)[C@@H](NC(=O)[C@H](Cc2ccccc2)N(C)C)CCCNC1=O [Compound 331, Fbp-[Orn-Pro-cha-Trp-Nle]] (NMe2Phe-[Orn]P[dCha]W[Nle]; lactam 1-C)
50 to 200 | CCCC[C@@H]1NC(=O)[C@H](Cc2c[nH]c3ccccc23)NC(=O)[C@@H](CC2CCCCC2)NC(=O)[C@@H]2CCCN2C(=O)[C@@H](NC(=O)[C@H](Cc2ccccc2)NC(=O)CON=C[C@H](O)[C@@H](O)[C@H](O)[C@H](O)CO)CCCNC1=O [Compound 333, Fck-[Phe-Orn-Pro-cha-Trp-Nle]]
50 to 200 | O=C(CN1CCOCC1)N[C@@H](Cc1ccccc1)C(=O)N[C@H]1CCCNC(=O)[C@H](Cc2ccccc2)NC(=O)[C@H](Cc2c[nH]c3ccccc23)NC(=O)[C@@H](CC2CCCCC2)NC(=O)[C@@H]2C[C@@H](O)CN2C1=O [Compound 335, Fha-Phe-[Orn-Hyp-cha-Trp-Phe]] (Morpholinoacetyl-F[Orn][Hyp][dCha]WF; lactam 2-C)

SMILES | IC50 [nM]
CC(=O)N[C@@H](Cc1ccccc1)C(=O)N[C@@H](CCCN)C(=O)N1CCC[C@H]1C(=O)N[C@H](Cc1ccccc1C)C(=O)N[C@@H](Cc1csc2ccccc12)C(=O)N[C@@H](Cc1ccccc1)C(N)=O [Compound 308, Ac-Phe-Orn-Pro-omf-Bta-Phe-NH2] (Ac-F[Orn]P[dPhe(2-Me)][Bta]F-NH2) | 50 to 200
CCC(=O)N[C@@H](Cc1ccccc1)C(=O)N[C@@H](CCCN)C(=O)N1CCC[C@H]1C(=O)N[C@H](CC1CCCCC1)C(=O)N[C@@H](Cc1csc2ccccc12)C(=O)N[C@@H](Cc1ccccc1)C(N)=O [Compound 316, CH3CH2CO-Phe-Orn-Pro-cha-Bta-Phe-NH2] (Propionyl-F[Orn]P[dCha][Bta]F-NH2) | 20 to 50
CC(C)CC[C@@H](NC(=O)[C@@H]1CCCN1C(=O)[C@H](CCCNC(N)=O)NC(=O)[C@H](Cc1ccccc1)NC(=O)c1cccnc1)C(=O)N[C@@H](Cc1csc2ccccc12)C(=O)N[C@@H](Cc1ccccc1)C(N)=O [Compound 329, Fbn-Phe-Cit-Pro-hle-Bta-Phe-NH2] (Nicotinoyl-F[Cit]P[d(hLeu)][Bta]F-NH2) | 50 to 200
O=C(N[C@@H](Cc1ccccc1)C(=O)N[C@H]1CCCNC(=O)[C@H](Cc2ccccc2)NC(=O)[C@H](Cc2c[nH]c3ccccc23)NC(=O)[C@@H](CC2CCCCC2)NC(=O)[C@@H]2C[C@@H](O)CN2C1=O)C1CCCNC1 (stereo partly drawn) [Compound 332, Fci-[Phe-Orn-Hyp-cha-Trp-Phe]] (ξNip-F[Orn][Hyp][dCha]WF; lactam 2-C) | 50 to 200
O=C(NCC(O)CO)N[C@@H](Cc1ccccc1)C(=O)N[C@H]1CCCNC(=O)[C@H](Cc2ccccc2)NC(=O)[C@H](Cc2c[nH]c3ccccc23)NC(=O)[C@@H](CC2CCCCC2)NC(=O)[C@@H]2C[C@@H](O)CN2C1=O (stereo partly drawn) [Compound 336, Fhb-[Phe-Orn-Hyp-cha-Trp-Phe]] ({NHCH2CH(OH)CH2OH-CO}-F[Orn][Hyp][dCha]WF; lactam 2-C) | 50 to 200
